These results are taken from ChEMBL document CHEMBL5465560, “Selectivity Literature for EUbOPEN Chemogenomic Library” (2024).

Assay [1] concerns the target Mitogen-activated protein kinase 10 (Homo sapiens, UniProt P53779). Nature of the assay: Selectivity interaction (LanthaScreen Eu Kinase Binding Assay) EUB0001632a MAPK10. Conditions: at 10 µM. A general note: Time-resolved FRET reads energy transfer from a long-lived donor to a nearby acceptor.
For assay [2], the target named is Glycogen synthase kinase-3 alpha (Homo sapiens, UniProt P49840). Nature of the assay: Selectivity interaction (Kinase panel (KiNativ target engagement assay in Jurkat cells)) EUB0001635a GSK3A. It is filed as cell-based. The settings on record: Selectivity number of off-targets 0.0, Selectivity number of targets 233.0, Source Knowledge https://www.sciencedirect.com/science/article/pii/S2451945619300674?via%3Dihub, at 1 µM.

In assay [3] the target is T1, Tyrosine-protein kinase JAK1 (Homo sapiens, UniProt P23458). Nature of the assay: Selectivity interaction (Kinase panel (KiNativ target engagement assay in Jurkat cells)) EUB0001635a JAK1. The settings on record: Selectivity number of off-targets 0.0, Selectivity number of targets 233.0, Source Knowledge https://www.sciencedirect.com/science/article/pii/S2451945619300674?via%3Dihub, at 1 µM. In kind it is cell-based.
T1 sequence (P23458 whole entry): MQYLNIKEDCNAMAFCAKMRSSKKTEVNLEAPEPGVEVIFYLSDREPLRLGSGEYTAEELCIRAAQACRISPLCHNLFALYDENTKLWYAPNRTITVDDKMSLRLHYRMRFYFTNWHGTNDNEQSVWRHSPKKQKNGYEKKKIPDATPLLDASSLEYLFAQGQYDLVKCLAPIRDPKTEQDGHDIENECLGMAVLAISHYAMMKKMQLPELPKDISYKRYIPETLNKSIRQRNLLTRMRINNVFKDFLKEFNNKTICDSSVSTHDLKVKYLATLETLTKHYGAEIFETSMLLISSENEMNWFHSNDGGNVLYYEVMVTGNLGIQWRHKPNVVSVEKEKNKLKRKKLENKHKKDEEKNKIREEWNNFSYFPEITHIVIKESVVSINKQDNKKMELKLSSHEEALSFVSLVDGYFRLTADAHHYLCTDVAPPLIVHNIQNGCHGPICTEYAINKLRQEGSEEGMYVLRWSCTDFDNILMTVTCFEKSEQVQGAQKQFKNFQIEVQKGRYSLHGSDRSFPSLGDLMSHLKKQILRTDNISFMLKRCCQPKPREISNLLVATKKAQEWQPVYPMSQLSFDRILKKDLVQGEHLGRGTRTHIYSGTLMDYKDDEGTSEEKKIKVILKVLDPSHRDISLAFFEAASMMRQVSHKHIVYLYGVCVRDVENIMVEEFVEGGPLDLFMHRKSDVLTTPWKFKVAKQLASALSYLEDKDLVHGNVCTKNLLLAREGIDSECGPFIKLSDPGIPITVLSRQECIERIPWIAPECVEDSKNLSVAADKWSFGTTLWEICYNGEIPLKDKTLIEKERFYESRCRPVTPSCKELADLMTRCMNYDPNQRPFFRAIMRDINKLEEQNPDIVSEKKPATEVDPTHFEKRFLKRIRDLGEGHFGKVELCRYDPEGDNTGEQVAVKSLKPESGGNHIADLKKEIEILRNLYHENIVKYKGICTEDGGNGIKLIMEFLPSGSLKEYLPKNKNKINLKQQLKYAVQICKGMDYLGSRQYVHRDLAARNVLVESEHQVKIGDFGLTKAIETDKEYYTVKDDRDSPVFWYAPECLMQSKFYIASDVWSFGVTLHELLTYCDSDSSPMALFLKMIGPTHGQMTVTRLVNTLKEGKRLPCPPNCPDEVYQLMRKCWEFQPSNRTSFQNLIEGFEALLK

Assay [4] deals with T1, Tyrosine-protein kinase JAK1. Nature of the assay: Selectivity interaction (KinomeScan (DiscoverX)) EUB0000607a JAK1. The settings on record: at 10 µM.
Assay [5] has as its target Mitogen-activated protein kinase 7 (Homo sapiens) (UniProt Q13164). Nature of the assay: Selectivity interaction (KinomeScan (DiscoverX)) EUB0000666a MAPK7. Conditions: at 10 µM.
Assay [6] concerns the target Leukocyte tyrosine kinase receptor (Homo sapiens, UniProt P29376). Nature of the assay: Selectivity interaction (KinomeScan (DiscoverX)) EUB0001079a LTK. The settings on record: at 1 µM.
For assay [7], the target named is Tyrosine-protein kinase CSK (Homo sapiens) (UniProt P41240). Nature of the assay: Selectivity interaction (Kinase panel (literature)) EUB0001199aCl CSK. Conditions: at 1 µM.
Assay [8] addresses Serine/threonine-protein kinase WNK1 (Homo sapiens) (UniProt Q9H4A3). Nature of the assay: Selectivity interaction (ActivX KiNativ screen (kinase selectivity in THP-1 cell lysates)) EUB0000639a WNK1. In kind it is subcellular. The settings on record: lysate, at 0.2 µM.
In assay [9] the target is Ribosomal protein S6 kinase alpha-2 (Homo sapiens) (UniProt Q15349). The settings on record: at 10 µM.
In assay [10] the test system is Epidermal growth factor receptor (Homo sapiens), P00533 [UNDEFINED MUTATION]. Nature of the assay: Selectivity interaction (KinomeScan (DiscoverX)) EUB0001049a EGFR. Conditions: at 1 µM.
Assay [11] has as its target Dual specificity mitogen-activated protein kinase kinase 2 (Homo sapiens) (UniProt P36507). Nature of the assay: Selectivity interaction (KinomeScan (DiscoverX)) EUB0001049a MAP2K2. Conditions: at 1 µM.
The target in assay [12] is Receptor tyrosine-protein kinase erbB-4 (Homo sapiens, UniProt Q15303). Nature of the assay: Selectivity interaction (KinomeScan (DiscoverX)) EUB0000092b ERBB4. The settings on record: at 10 µM.
In assay [13] the target is Tyrosine-protein kinase Fer (Homo sapiens) (UniProt P16591). Nature of the assay: Selectivity interaction (KinomeScan (DiscoverX)) EUB0000045b FER.
Tyrosine-protein kinase Fer (Homo sapiens), sequence (P16591 whole entry, looked up): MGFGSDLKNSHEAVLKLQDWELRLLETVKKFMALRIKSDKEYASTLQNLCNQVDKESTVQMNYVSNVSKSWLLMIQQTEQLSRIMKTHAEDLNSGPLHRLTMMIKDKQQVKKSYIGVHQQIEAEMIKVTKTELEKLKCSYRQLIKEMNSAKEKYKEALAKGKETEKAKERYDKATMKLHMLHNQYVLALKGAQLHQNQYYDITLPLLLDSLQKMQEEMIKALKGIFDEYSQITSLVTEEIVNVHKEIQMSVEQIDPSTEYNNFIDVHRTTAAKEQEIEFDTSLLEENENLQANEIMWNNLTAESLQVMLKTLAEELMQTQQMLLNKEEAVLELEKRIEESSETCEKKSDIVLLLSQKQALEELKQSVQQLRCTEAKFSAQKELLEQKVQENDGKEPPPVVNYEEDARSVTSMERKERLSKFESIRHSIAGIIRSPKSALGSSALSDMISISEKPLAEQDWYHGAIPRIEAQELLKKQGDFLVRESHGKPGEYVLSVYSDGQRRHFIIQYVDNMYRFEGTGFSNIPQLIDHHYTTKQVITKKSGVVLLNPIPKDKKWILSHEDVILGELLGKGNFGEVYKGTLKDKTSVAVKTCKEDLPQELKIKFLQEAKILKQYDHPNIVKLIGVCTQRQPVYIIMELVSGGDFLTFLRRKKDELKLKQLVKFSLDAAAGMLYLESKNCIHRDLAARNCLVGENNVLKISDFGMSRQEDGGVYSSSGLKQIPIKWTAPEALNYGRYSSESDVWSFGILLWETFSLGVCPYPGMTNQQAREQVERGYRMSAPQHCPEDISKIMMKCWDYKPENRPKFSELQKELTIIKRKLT
Assay [14] deals with T2, SNF-related serine/threonine-protein kinase (Homo sapiens) (UniProt Q9NRH2).
T2 sequence (whole entry): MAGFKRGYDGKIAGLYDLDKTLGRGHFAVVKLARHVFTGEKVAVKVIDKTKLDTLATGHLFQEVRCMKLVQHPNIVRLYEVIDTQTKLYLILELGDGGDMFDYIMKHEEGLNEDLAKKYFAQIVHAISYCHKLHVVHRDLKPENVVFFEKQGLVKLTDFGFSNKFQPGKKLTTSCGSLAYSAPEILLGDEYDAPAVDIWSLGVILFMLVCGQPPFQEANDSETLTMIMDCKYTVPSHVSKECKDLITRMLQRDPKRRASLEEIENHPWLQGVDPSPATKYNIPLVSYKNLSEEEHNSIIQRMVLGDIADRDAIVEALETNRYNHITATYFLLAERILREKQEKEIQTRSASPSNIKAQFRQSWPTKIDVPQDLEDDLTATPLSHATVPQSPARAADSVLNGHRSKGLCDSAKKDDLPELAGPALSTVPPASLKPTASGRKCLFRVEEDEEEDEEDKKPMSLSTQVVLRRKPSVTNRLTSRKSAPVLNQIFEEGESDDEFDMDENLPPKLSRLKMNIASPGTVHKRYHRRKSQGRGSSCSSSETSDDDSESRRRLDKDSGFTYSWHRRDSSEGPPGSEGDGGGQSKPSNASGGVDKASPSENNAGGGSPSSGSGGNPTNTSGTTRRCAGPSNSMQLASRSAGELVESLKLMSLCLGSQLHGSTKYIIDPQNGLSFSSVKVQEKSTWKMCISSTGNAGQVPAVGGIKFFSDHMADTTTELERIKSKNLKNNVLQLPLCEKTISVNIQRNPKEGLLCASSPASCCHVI
Nature of the assay: Selectivity interaction (KinomeScan (DiscoverX)) EUB0000045b SNRK.

In assay [15] the target is Angiopoietin-1 receptor (Homo sapiens) (UniProt Q02763). Nature of the assay: Selectivity interaction (Upstate Kinase Profiler service (Millipore)) EUB0000056c TEK. The settings on record: at 1 µM.
The target of assay [16] is T3, Serine/threonine-protein kinase ICK (Homo sapiens) (UniProt Q9UPZ9).
T3 sequence (whole entry): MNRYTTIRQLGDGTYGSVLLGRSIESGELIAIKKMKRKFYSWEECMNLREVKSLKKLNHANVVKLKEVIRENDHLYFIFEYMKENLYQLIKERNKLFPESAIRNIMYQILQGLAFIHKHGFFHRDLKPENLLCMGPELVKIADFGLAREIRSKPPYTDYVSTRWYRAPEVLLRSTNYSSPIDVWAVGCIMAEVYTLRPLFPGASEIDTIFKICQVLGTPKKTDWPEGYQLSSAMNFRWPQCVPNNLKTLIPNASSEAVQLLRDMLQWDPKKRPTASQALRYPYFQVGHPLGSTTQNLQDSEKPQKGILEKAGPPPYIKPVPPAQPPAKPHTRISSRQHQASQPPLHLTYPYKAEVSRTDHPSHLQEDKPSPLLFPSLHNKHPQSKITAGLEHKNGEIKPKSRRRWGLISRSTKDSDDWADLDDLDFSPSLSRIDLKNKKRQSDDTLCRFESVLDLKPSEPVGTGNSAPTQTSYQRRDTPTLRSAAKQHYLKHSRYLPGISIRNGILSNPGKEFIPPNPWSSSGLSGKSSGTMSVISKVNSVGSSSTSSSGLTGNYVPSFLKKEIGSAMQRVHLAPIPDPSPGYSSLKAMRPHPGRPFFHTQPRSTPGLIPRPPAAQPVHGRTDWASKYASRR
Nature of the assay: Selectivity interaction (KinomeScan (DiscoverX)) EUB0000595a ICK. The settings on record: at 10 µM.

The target in assay [17] is DNA (cytosine-5)-methyltransferase 1 (Homo sapiens) (UniProt P26358). Nature of the assay: Selectivity interaction (Methyltransferase screen (radiometric assays, panel of 8 PRMTs, 21 protein lysine methyltransferases, 3 DNA methyltransferases, and one RNA methyltransferase)) EUB0000272b DNMT1.
DNA (cytosine-5)-methyltransferase 1 (Homo sapiens), sequence (P26358 whole entry): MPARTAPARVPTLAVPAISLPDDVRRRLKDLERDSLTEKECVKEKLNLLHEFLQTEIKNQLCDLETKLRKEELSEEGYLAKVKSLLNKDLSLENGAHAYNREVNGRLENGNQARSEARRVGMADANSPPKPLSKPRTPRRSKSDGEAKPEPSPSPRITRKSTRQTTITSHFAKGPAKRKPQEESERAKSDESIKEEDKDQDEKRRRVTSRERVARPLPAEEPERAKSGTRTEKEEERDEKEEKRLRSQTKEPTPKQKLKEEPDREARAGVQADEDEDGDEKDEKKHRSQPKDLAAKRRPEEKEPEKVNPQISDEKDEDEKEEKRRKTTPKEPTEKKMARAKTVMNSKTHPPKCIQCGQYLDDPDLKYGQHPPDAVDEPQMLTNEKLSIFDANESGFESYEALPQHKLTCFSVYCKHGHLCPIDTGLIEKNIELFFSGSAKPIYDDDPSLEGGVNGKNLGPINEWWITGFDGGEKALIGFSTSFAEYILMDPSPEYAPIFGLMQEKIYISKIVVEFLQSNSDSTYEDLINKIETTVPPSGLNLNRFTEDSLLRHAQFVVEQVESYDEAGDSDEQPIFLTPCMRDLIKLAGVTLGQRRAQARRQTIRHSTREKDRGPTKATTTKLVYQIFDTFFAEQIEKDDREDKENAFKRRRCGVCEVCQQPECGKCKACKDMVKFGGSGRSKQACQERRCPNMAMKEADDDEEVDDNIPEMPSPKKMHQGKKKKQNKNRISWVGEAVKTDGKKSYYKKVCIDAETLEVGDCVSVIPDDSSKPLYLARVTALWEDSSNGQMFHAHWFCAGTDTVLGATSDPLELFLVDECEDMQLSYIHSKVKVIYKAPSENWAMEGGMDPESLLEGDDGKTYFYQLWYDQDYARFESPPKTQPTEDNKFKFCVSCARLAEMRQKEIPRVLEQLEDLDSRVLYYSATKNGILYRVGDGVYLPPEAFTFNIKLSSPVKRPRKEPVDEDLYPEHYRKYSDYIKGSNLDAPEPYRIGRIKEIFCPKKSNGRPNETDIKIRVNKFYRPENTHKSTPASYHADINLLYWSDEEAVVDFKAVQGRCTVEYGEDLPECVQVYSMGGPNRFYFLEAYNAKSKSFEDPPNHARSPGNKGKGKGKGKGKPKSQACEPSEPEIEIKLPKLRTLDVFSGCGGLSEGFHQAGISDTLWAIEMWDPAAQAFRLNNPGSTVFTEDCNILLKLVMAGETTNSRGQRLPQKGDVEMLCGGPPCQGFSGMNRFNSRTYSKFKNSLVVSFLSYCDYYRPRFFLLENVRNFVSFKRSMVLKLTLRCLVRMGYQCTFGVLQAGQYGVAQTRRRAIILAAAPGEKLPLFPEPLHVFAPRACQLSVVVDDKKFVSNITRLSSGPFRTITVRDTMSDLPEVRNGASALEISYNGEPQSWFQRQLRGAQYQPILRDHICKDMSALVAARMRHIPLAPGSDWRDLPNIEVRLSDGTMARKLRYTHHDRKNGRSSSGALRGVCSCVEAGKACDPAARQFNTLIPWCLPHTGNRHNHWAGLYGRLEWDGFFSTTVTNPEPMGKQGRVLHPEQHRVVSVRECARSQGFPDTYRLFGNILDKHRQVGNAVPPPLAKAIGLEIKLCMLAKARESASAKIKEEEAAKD
The target in assay [18] is Histone-lysine N-methyltransferase, H3 lysine-79 specific (Homo sapiens, UniProt Q8TEK3). Nature of the assay: Selectivity interaction (Methyltransferase screen (radiometric assays, panel of 8 PRMTs, 21 protein lysine methyltransferases, 3 DNA methyltransferases, and one RNA methyltransferase)) EUB0000272b DOT1L.
Histone-lysine N-methyltransferase, H3 lysine-79 specific, sequence (Q8TEK3 whole entry, looked up): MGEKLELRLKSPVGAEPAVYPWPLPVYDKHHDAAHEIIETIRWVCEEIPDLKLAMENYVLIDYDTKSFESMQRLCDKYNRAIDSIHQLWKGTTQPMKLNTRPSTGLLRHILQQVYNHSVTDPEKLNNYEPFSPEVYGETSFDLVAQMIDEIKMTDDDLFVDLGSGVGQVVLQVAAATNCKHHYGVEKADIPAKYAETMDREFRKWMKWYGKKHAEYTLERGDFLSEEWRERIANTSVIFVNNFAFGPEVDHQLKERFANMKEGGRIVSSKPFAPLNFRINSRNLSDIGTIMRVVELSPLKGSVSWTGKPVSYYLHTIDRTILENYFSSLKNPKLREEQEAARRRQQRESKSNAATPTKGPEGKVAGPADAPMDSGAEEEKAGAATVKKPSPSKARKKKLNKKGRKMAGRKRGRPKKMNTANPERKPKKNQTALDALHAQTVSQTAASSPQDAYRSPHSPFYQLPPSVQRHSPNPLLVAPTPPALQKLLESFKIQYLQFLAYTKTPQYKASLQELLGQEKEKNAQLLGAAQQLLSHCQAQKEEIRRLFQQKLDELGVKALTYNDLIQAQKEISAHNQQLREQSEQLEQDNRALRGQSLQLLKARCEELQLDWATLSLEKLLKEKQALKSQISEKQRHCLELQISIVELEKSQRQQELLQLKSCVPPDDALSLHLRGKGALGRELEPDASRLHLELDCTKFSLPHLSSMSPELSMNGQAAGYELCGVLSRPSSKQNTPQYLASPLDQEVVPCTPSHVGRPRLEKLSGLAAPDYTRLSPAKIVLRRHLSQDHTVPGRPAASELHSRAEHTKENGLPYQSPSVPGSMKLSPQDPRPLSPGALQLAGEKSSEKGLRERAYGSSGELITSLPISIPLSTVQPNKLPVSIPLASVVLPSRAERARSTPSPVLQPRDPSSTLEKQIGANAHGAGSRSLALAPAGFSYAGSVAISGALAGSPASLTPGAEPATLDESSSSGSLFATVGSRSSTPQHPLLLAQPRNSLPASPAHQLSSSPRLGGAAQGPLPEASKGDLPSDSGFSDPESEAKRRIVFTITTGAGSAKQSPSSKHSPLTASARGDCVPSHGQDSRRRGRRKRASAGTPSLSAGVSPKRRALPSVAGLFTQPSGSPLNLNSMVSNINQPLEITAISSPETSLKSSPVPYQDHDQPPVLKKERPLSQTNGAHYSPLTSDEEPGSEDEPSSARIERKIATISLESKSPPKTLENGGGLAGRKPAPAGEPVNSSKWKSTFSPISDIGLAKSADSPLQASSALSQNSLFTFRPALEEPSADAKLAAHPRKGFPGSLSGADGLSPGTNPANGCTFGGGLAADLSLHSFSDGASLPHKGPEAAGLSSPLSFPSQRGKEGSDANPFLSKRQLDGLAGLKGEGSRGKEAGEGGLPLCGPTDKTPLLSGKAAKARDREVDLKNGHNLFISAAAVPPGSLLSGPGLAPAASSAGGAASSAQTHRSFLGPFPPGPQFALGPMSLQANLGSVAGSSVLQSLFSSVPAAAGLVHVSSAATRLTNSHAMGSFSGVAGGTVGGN

Molecules are shown by their SMILES.

For `Cn1cc(-n2cnc3c(NCc4nc5cc(Cl)c(Cl)cc5[nH]4)nc(N4CCOCC4)nc32)cn1`, the % of inhibition in assay [1] was -2.22%. As for `C=CC(=O)Nc1ccc(C(=O)Nc2[nH]nc3c2CN(C(=O)N[C@H](CN(C)C)c2ccccc2)C3(C)C)cc1`, the % of engagement was -9.5% in assay [2] and 11.1% in [3]. `CNC(=O)Nc1ccc(-c2nc(N3CC4CCC(C3)O4)c3cnn(C4CCC5(CC4)OCCO5)c3n2)cc1` yielded a % of control in [4] of 82%. `O=C(NOC[C@H](O)CO)c1ccc(F)c(F)c1Nc1ccc(I)cc1F` gave a % of control in [5] of 88%. `Nc1cnc(N2CCc3cc(S(=O)(=O)Nc4c(F)cc(Cl)cc4F)cc(N4CCCC4=O)c32)nc1` [TP-020n]: the % of control in assay [6] was 100%. With `CN1Cc2nccc(-c3cn(C)nc3-c3ccc(F)cc3)c2C1=O`, the % of inhibition in [7] was -3%.

With `CC[C@@H]1[C@H](F)C(=O)N[C@@H]1COc1nccc2cc(C(N)=O)c(OC)cc12` [ZIMLOVISERTIB], the % of inhibition in assay [8] was -12%.

Regarding `CCN(CC)CCCCNc1ncc2cc(-c3cc(OC)cc(OC)c3)c(NC(=O)NC(C)(C)C)nc2n1`, the % of control in assay [9] was determined as 100%. For `COc1cc(Nc2nc(C)cc(-c3cnn4nc(OC)ccc34)n2)cc(C(F)(F)F)c1`, the % of control in assay [10] is 83%; in assay [11], 77%. Turning to `CCC(=O)N1CCN(c2ccc(-n3c(=O)ccc4cnc5ccc(-c6cnc7ccccc7c6)cc5c43)cc2C(F)(F)F)CC1`, the % of control in [12] turned out to be 100%.

For `C=CC(=O)Nc1cc(-n2c(=O)ccc3cnc4ccc(-c5ccc(NS(C)(=O)=O)cc5)cc4c32)ccc1C`, the % of control in assay [13] (at 1 µM) came out at 66%; in assay [13] (at 10 µM), 89%; in assay [14] (at 1 µM), 100%; in assay [14] (at 10 µM), 58%. For `Cc1ccc(-c2ccc3c(ccc4sc5c(c43)NC[C@@H](C)NC5=O)n2)cn1`, the % of inhibition in [15] was -31%.

`COCC(=O)NC/C=C/c1ccc2ncnc(Nc3ccc(Oc4ccc(C)nc4)c(C)c3)c2c1` [CP-724714] had a % of control in assay [16] of 100%. As for `Cc1cc(C)cc([C@H]2c3cc(C)ccc3NC(=O)CN2C(=O)c2ccc(Br)s2)c1`, the % of activity came to 98.7% in [17] (at 1 µM), 104% in assay [17] (at 10 µM), 100% in [18] (at 1 µM) and 94.3% in assay [18] (at 10 µM).
